Experimental data as given in US20230255934A1, “NURR1 RECEPTOR MODULATORS AND USES THEREOF” (The Regents of the University of California, priority 2020, published 2023).
“Also recorded” adds a separate entry of the source. Read-outs that look alike come from different tables or passages of the source.

How the values were obtained:
MN9D cells = assay: CytoTox-Glo cytotoxicity assay; type: cell-based; conditions: 24 h treatment, 10 μM unless stated
Procedure: Cytotoxicity assays were carried out using the CytoTox-Glo Cytotoxicity Assay Kit (Promega) according to the manufacturer's instructions. Briefly, MN9D cells were resuspended in DMEM/F-12 with 5% FBS at 2·10^5 cells/ml and added to an equal volume of two-fold concentrated compound in the same media containing 0.2% DMSO (prepared by diluting DMSO stock of the compound in warm DMEM/F-12 with 5% FBS; for DMSO control equivalent volume of DMSO was used instead of the compound stock), and immediately re-plated onto poly-D-lysine pre-treated 96-well white-walled flat clear bottom plate (Corning cat #3903) at a density of 1·10^4 cells/well (100 μL/well), 3 replicas per compound. As a background (BG) control, for each of the compound (or DMSO) equivalent volume of compound mixed with DMEM/F-12+5% FBS was plated. After 24 h treatment at 37° C., in 5% C02 incubator, 50 μL of CytoTox-Glo™ Cytotoxicity Assay Reagent was added to each well, mixed briefly by orbital shaking and incubated for 15 min at ambient temperature. Luminescence signal corresponding to dead cells was measured using Biotek Synergy H4 hybrid microplate reader. After the measurement, 50 μL of Lysis Reagent was added to each well, mixed, incubated for 15 min at ambient temperature, and total luminescence was measured. The percentage of viable cells was then calculated as follows: Percent Viable Cells (%)=100% (Total cell luminescence (test compound)—Dead cell luminescence (test compound))/(Total cell luminescence (DMSO)—Dead cell luminescence (DMSO)).

[1] = UV/VIS spectroscopy (A280) under MST assay conditions; type: physicochemical; conditions: A280 linear over all concentrations, 0.1% Pluronic F127
Nurr1 LBD His516Ala = target: T1, Nurr1 LBD His516Ala (Homo sapiens, UniProt P43354, H516A); assay: MST binding to His516Ala mutant Nurr1 LBD; conditions: for Amplitude (% change) / KD (% change): Table 1, H516 relative to WT; for Amplitude: Table 1, MST amplitude, H516; for Response Amplitude: Table 2, MST, His516Ala
T1 construct: Mutants of LAP2 Nurr1 were prepared by GenScript starting from LAP2 Nurr1 vector; made in house
T1 sequence (P43354 with tags, fused parts or gaps H516A): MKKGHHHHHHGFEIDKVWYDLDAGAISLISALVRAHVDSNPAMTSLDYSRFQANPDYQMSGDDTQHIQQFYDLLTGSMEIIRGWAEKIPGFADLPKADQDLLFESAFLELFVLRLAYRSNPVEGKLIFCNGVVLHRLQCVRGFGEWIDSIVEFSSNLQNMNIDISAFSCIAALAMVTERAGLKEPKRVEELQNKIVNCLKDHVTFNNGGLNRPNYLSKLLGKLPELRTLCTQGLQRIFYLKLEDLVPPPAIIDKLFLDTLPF
Procedure: (§1) The plasmid used for the expression of LAP2-tagged Nurr1 LBDs (LAP2 Nurr1) was prepared by GenScript (Piscataway, N.J.) as the product of gene synthesis and subcloning into pET-21a(+) Vector (GenScript) using the Ndel and Xhol sites within the MCS. Mutants of LAP2 Nurr1 were prepared by GenScript starting from LAP2 Nurr1 vector.
(§2) Concentration-dependent association of the indoles with the Nurr1 LBD was carried out using microscale thermophoresis. Stock solutions (10 mM in DMSO) of each indole were serially diluted (200 μM indole, 0.5× dilutions down to 0.0061 μM) in MST buffer (25 mM HEPES, pH 7.4, 150 mM NaCl, and 0.1% Pluronic F127) containing 2% DMSO. The dilutions were carried out with 4% DMSO in the MST buffer for a total of 16 concentrations. Equivalent volumes and concentrations of the fluorescently labeled Nurr1 LBD in MST buffer were added to each ligand dilution in the series to reach a final concentration of 75 nM labeled protein. After incubating for 20 minutes, the samples were loaded into Monolith NT.115 Capillaries (Nanotemper).
(§3) Data were collected using the Monolith NT.115 System (Nanotemper), with settings for all samples at 40% excitation power and 40% MST power. The initial fluorescence was recorded for 3 sec and the thermophoresis fluorescence response was recorded for 20 sec. The data was inspected with Palmist software^5, and data points affected by initial fluorescence quenching or photobleaching were eliminated. The fluorescent response for each sample was normalized to the initial fluorescence using Palmist software to provide the values of thermophoresis (Fn). The resulting data was used to generate a plot of the change in thermophoresis (Fn-Fn0, where Fn=thermophoresis and Fn0=thermophoresis response in unbound range) versus concentration of the ligand. GraphPad Prism v. 8.3.0 software was used to fit the resulting data to a mass action equation for a specific binding with Hill slope, solving for KD: Fn-Fn0═Fmax·[L]^n/(KD^n+[L]^n), where Fmax=maximum amplitude of thermophoresis, [L]=concentration of the ligand at a specific point, KD=dissociation constant, nH=Hill Coefficient.

Nurr1 LBD Arg563Ala = target: T2, Nurr1 LBD Arg563Ala (Homo sapiens, UniProt P43354, R563A); assay: MST binding to Arg563Ala mutant Nurr1 LBD; conditions: for Amplitude: Table 1, MST amplitude, R563A; for Response Amplitude: Table 2, MST, Arg563Ala
T2 construct: Mutants of LAP2 Nurr1 were prepared by GenScript starting from LAP2 Nurr1 vector; made in house
T2 sequence (P43354 with tags, fused parts or gaps R563A): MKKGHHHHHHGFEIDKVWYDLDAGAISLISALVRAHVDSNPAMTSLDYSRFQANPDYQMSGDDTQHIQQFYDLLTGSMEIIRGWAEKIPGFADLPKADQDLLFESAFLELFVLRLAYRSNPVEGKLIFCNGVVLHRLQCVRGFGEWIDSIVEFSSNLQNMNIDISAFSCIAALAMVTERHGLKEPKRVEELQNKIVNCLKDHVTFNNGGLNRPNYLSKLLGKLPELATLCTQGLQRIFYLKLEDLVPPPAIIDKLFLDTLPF
Procedure: as §1, §2, §3

[2] = Table 1, Nurr1 variant H516, read-out: KD
[3] = Table 2, His516Ala, read-out: Affinity (KD)

Row | Structure (SMILES) | Cytotoxicity / cell viability (MN9D cells) | Precipitation under MST assay conditions [1] | Binding affinity for His516Ala mutant versus wildtype (in words) (Nurr1 LBD His516Ala; MST) | Amplitude (% change) (Nurr1 LBD His516Ala) | KD (% change) (Nurr1 LBD His516Ala) | Amplitude (Nurr1 LBD His516Ala) | Kd (Nurr1 LBD His516Ala; [2]) | Kd (Nurr1 LBD His516Ala; [3]) | Response Amplitude (Nurr1 LBD His516Ala) | Binding to Arg563Ala mutant Nurr1 LBD (in words) (Nurr1 LBD Arg563Ala; MST) | Amplitude (Nurr1 LBD Arg563Ala) | Amplitude (% change) (Nurr1 LBD Arg563Ala; Table 1, R563A relative to WT) | Response Amplitude (Nurr1 LBD Arg563Ala) | Kd (Nurr1 LBD Arg563Ala; Table 1, Nurr1 variant R563A, read-out: KD) | KD (% change) (Nurr1 LBD Arg563Ala; Table 1, R563A relative to WT) | Kd (Nurr1 LBD Arg563Ala; Table 2, Arg563Ala, read-out: Affinity (KD))
1 | Brc1ccc2[nH]ccc2c1 [5-bromoindole] | somewhat toxic to cells under certain conditions | do not precipitate under the assay conditions | statistically unchanged | −43% | +10% | 41 + 5 | 11 µM | 7.3 µM | 33 + 5 (*) | completely eliminated | ≤10 | ≥−86% | ≤10 (****) | – | – | –
2 | Clc1ccc2[nH]ccc2c1 [5-chloroindole] | no significant effect on cell viability; also recorded: not cytotoxic; also recorded: non-cytotoxic | do not precipitate under the assay conditions | – | −50% | −36% | 34 + 4 | 16 µM | 8.6 µM | 25 + 2 (****) | – | 23 + 2 | −66% | 19 + 2 (****) | 13 µM | −48% | 8.3 µM
